Assay results as given in ChEMBL document CHEMBL1201862, “PubChem BioAssay data set” (2004).
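Assay format: 96-well plates, 48-hour exposure. GI50: concentration for 50% inhibition of growth.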 Active and inactive are the calls of the source. Rule as the data show it: active = GI50 up to about 1.1 µM and inactive = higher.

Legend:
Test in all cases: DTP human tumour cell line panel, 48 h
HL-60 = test system: HL-60
SK-MEL-2 = test system: SK-MEL-2
SN12C = test system: SN12C
UACC-257 = test system: UACC-257
HCT-15 = test system: HCT-15
LXFL 529 = test system: LXFL 529
A549 = test system: A549
NCI-H460 = test system: NCI-H460
HOP-62 = test system: HOP-62
SF-268 = test system: SF-268
LOX IMVI = test system: LOX IMVI
UO-31 = test system: UO-31
K562 = test system: K562
NCI-H23 = test system: NCI-H23
KM12 = test system: KM12
CAKI-1 = test system: CAKI-1
OVCAR-5 = test system: OVCAR-5
T47D = test system: T47D
Hs-578T = test system: Hs-578T
MDA-MB-231 = test system: MDA-MB-231

Measured: GI50

CSc1nnc2n1-c1ccccc1SCC2
> 100 µM: HCT-15
inactive: HL-60 > 100 µM | SK-MEL-2 > 100 µM | SN12C > 100 µM | UACC-257 > 100 µM | LXFL 529 > 100 µM | A549 > 100 µM | NCI-H460 > 100 µM | HOP-62 > 100 µM | SF-268 > 100 µM | LOX IMVI > 100 µM | UO-31 > 100 µM | K562 > 100 µM | NCI-H23 > 100 µM | KM12 > 100 µM

COc1ccc(/C=c2/sc3n(c2=O)NC(c2ccc(Cl)cc2)NN=3)cc1 (stereo not given)
inactive: SK-MEL-2 > 100 µM | SN12C > 100 µM | CAKI-1 > 100 µM | LXFL 529 > 100 µM | A549 > 100 µM | OVCAR-5 > 100 µM | NCI-H460 > 100 µM | SF-268 > 100 µM | LOX IMVI > 100 µM | UO-31 > 100 µM | K562 > 100 µM | NCI-H23 > 100 µM | KM12 > 100 µM

CNC(=O)NCCCC(NC(C)=O)C(=O)NCc1ccccc1 (stereo not given)
> 100 µM: HCT-15
inactive: SK-MEL-2 > 100 µM | SN12C > 100 µM | CAKI-1 > 100 µM | UACC-257 > 100 µM | LXFL 529 > 100 µM | A549 > 100 µM | OVCAR-5 > 100 µM | NCI-H460 > 100 µM | HOP-62 > 100 µM | SF-268 > 100 µM | LOX IMVI > 100 µM | UO-31 > 100 µM | K562 > 100 µM | NCI-H23 > 100 µM | KM12 > 100 µM

CC1(C)OC2C(O1)[C@H]1OC(C(Cl)(Cl)Cl)=N[C@H]1C(I)[C@H]2N1C(=O)c2ccccc2C1=O (stereo not given in full)
55.1 µM: HCT-15
inactive: HL-60 17.9 µM | SN12C 74.8 µM | UACC-257 36.1 µM | LXFL 529 50.2 µM | A549 32.6 µM | OVCAR-5 > 100 µM | NCI-H460 54.6 µM | HOP-62 > 100 µM | SF-268 71.6 µM | LOX IMVI 51.2 µM | K562 36.7 µM | NCI-H23 58.2 µM | KM12 49.7 µM

NCCCC1NC(=O)/C(=C(O)/C=C/C2CCC[C@@H]2CC2SCCS2)C1=O (stereo not given in full)
inactive: HL-60 23.3 µM | SK-MEL-2 > 100 µM | SN12C > 100 µM | UACC-257 76.9 µM | LXFL 529 75 µM | A549 > 100 µM | OVCAR-5 > 100 µM | NCI-H460 > 100 µM | HOP-62 > 100 µM | SF-268 > 100 µM | LOX IMVI > 100 µM | UO-31 > 100 µM | K562 31.2 µM | NCI-H23 > 100 µM | KM12 > 100 µM

CC(C)OP(=S)(NC(=S)c1ccccc1)OC(C)C
> 100 µM: HCT-15
inactive: SK-MEL-2 > 100 µM | SN12C > 100 µM | CAKI-1 > 100 µM | UACC-257 > 100 µM | LXFL 529 87.3 µM | A549 > 100 µM | OVCAR-5 > 100 µM | NCI-H460 59 µM | SF-268 > 100 µM | LOX IMVI > 100 µM | UO-31 > 100 µM | K562 > 100 µM | NCI-H23 > 100 µM | KM12 > 100 µM

CCCCCCCCCCCCCP(=O)(O)OCC
> 100 µM: HCT-15
inactive: HL-60 > 100 µM | SK-MEL-2 > 100 µM | SN12C > 100 µM | UACC-257 > 100 µM | LXFL 529 > 100 µM | A549 > 100 µM | OVCAR-5 > 100 µM | NCI-H460 > 100 µM | HOP-62 > 100 µM | SF-268 > 100 µM | LOX IMVI > 100 µM | UO-31 > 100 µM | NCI-H23 > 100 µM | KM12 > 100 µM

COC1/C(=C\C(=O)OC(C)(C)C)c2ccccc2N1C(C)=O (stereo not given)
inactive: HL-60 36.2 µM | SK-MEL-2 > 100 µM | SN12C > 100 µM | CAKI-1 > 100 µM | UACC-257 > 100 µM | LXFL 529 > 100 µM | A549 > 100 µM | NCI-H460 > 100 µM | HOP-62 > 100 µM | UO-31 > 100 µM | K562 > 100 µM | NCI-H23 > 100 µM | KM12 9.53 µM
> 100 µM: HCT-15

O=C(O)Cn1c(=O)[nH]c(=O)c2c1ncn2Cc1ccccc1
inactive: SK-MEL-2 > 100 µM | SN12C > 100 µM | CAKI-1 > 100 µM | LXFL 529 > 100 µM | A549 > 100 µM | OVCAR-5 > 100 µM | NCI-H460 > 100 µM | HOP-62 > 100 µM | SF-268 > 100 µM | UO-31 > 100 µM | K562 > 100 µM | NCI-H23 > 100 µM | KM12 > 100 µM
> 100 µM: HCT-15

C[C@]12CC[C@H]3[C@@H](CC=C4C[C@@H](O)CC[C@@]43C)[C@@H]1C[C@H](N1CCOCC1)[C@@H]2O
inactive: HL-60 48.5 µM | SK-MEL-2 > 100 µM | SN12C > 100 µM | T47D > 100 µM | CAKI-1 > 100 µM | UACC-257 > 100 µM | A549 > 100 µM | OVCAR-5 > 100 µM | NCI-H460 > 100 µM | HOP-62 > 100 µM | Hs-578T 85.5 µM | SF-268 > 100 µM | LOX IMVI > 100 µM | UO-31 > 100 µM | K562 68.4 µM | NCI-H23 > 100 µM | KM12 > 100 µM | MDA-MB-231 54.3 µM
> 100 µM: HCT-15

Nc1ncnc2c1ncn2C1CC(OCc2ccccc2[N+](=O)[O-])C(CO)O1 (stereo not given)
inactive: HL-60 12.7 µM | SK-MEL-2 22.4 µM | SN12C 24.3 µM | UACC-257 18.5 µM | LXFL 529 13.6 µM | A549 21.7 µM | OVCAR-5 > 50 µM | NCI-H460 20.1 µM | HOP-62 24.3 µM | SF-268 28.2 µM | LOX IMVI 20.9 µM | UO-31 17 µM | K562 16.1 µM | NCI-H23 23 µM | KM12 20 µM
21.8 µM: HCT-15

CC(C)(C)C1=CC(=C2C=Cc3ccccc3O2)C=C(C(C)(C)C)C1=O
3.13 µM: HCT-15
inactive: HL-60 1.9 µM | SK-MEL-2 2.13 µM | SN12C 3.21 µM | T47D 1.77 µM | CAKI-1 3.07 µM | UACC-257 3.61 µM | A549 4.16 µM | OVCAR-5 6.7 µM | NCI-H460 1.6 µM | HOP-62 6.04 µM | Hs-578T 7 µM | SF-268 5.55 µM | LOX IMVI 3.06 µM | UO-31 4.68 µM | K562 3.94 µM | NCI-H23 4.56 µM | KM12 2.47 µM | MDA-MB-231 3.41 µM

S=C(N/N=C(/c1ccccc1)c1ccccn1)N(Cc1ccccn1)Cc1ccccn1
inactive: SK-MEL-2 1.28 µM | Hs-578T 1.41 µM
0.102 µM: HCT-15
active: HL-60 < 0.0443 µM | SN12C < 0.01 µM | T47D < 0.0177 µM | CAKI-1 0.0822 µM | UACC-257 0.0425 µM | A549 0.435 µM | OVCAR-5 0.427 µM | NCI-H460 0.116 µM | HOP-62 0.964 µM | SF-268 0.196 µM | LOX IMVI 0.0908 µM | UO-31 0.356 µM | K562 < 0.01 µM | NCI-H23 0.108 µM | KM12 0.432 µM | MDA-MB-231 < 0.0121 µM

CN(C)CCNC(=O)c1cccc2nc3c(C(=O)NCCN(C)C)cccc3nc12
inactive: SK-MEL-2 1.77 µM | T47D 4.34 µM | CAKI-1 2.14 µM | UACC-257 2.14 µM | A549 1.57 µM | OVCAR-5 2.3 µM | HOP-62 1.31 µM | Hs-578T 1.89 µM | UO-31 1.41 µM | NCI-H23 1.19 µM | KM12 1.26 µM | MDA-MB-231 1.14 µM
active: HL-60 0.713 µM | SN12C 0.918 µM | NCI-H460 0.82 µM | SF-268 0.782 µM | LOX IMVI 0.366 µM | K562 0.621 µM
2.98 µM: HCT-15

SC1CCCN(Cc2ccccc2)C1 (stereo not given)
inactive: HL-60 34.8 µM | SK-MEL-2 36 µM | SN12C 95.3 µM | T47D 27.5 µM | CAKI-1 74.1 µM | UACC-257 32.4 µM | A549 53.7 µM | OVCAR-5 > 100 µM | NCI-H460 23.9 µM | HOP-62 > 100 µM | Hs-578T 78.5 µM | SF-268 65.2 µM | LOX IMVI 16.5 µM | UO-31 54.2 µM | K562 23.8 µM | NCI-H23 25.6 µM | KM12 34.1 µM | MDA-MB-231 56.5 µM
38.2 µM: HCT-15

COc1nc(/C=N/NC(N)=S)nc(OC)n1
inactive: HL-60 45.8 µM | SK-MEL-2 > 100 µM | SN12C 71.6 µM | CAKI-1 78.5 µM | UACC-257 > 100 µM | LXFL 529 > 100 µM | A549 56.6 µM | OVCAR-5 > 100 µM | NCI-H460 43.5 µM | SF-268 61.7 µM | UO-31 56.1 µM | K562 > 100 µM | NCI-H23 > 100 µM | KM12 > 100 µM

O=C1/C(=C/c2ccc(O)c(CN3CCCCC3)c2)CCC/C1=C\c1ccc(O)c(CN2CCCCC2)c1
inactive: HL-60 3.48 µM | SK-MEL-2 22.1 µM | SN12C 8.79 µM | T47D 17.5 µM | CAKI-1 18.8 µM | UACC-257 10.6 µM | A549 16.7 µM | OVCAR-5 29.6 µM | NCI-H460 3.05 µM | HOP-62 5.04 µM | Hs-578T 8.24 µM | SF-268 3.52 µM | LOX IMVI 7.74 µM | UO-31 10.4 µM | K562 1.99 µM | NCI-H23 5.52 µM | KM12 4.12 µM | MDA-MB-231 5.69 µM
5.37 µM: HCT-15
